According to paper PMC8490515, “Neuromedin B receptor stimulation of Cav3.2 T-type Ca^2+ channels in primary sensory neurons mediates peripheral pain hypersensitivity” (Theranostics, 2021):

Legend:
Cav3.1 (α1G) = test: Cav3.1 channel currents in HEK293 cells coexpressing NmbR; type: cell-based, human; conditions: 100 nM Nmb; -110 mV to -30 mV; n = 10
[1] = system: high-voltage activated (HVA) Ca^2+ channels, L-type; test: HVA / L-type Ca2+ channel currents in TG neurons; type: cell-based, mouse
Experimental: (§1) All the procedures performed in this study were carried out in accordance with NIH guidelines and were approved by the Institutional Animal Care and Use Committee of Soochow University. TG neurons were dissociated as previously described, [23]. Briefly, TGs were harvested from 8- to 10-week-old ICR mice of either sex, cut into small pieces and treated with 2 mg/mL collagenase D (Roche) for 20 min followed by 1.5 mg/mL trypsin (Sigma) at 37 °C for 15 min. Cells were dissociated via gentle trituration with fire-polished sterilized Pasteur pipettes and centrifuged through a 15% BSA gradient to remove debris and nonneuronal cells. TG neurons were resuspended in neurobasal A (Thermo Fisher) supplemented with B27 (Thermo Fisher) and transferred onto Matrigel-coated coverslips. Patch clamp recordings were conducted 2 to 6 h after plating. In shRNA-treated knockdown experiments, TG cells were replated onto coverslips 48 h after infection.
(§2) Standard whole-cell recordings were made at room temperature (22-23 °C) as described previously, [25]. Recording electrodes were pulled from borosilicate glass microcapillary tubes (Sutter Instruments) and had resistances from 3 to 5 MΩ when filled with internal solution. Recordings were obtained using a MultiClamp 700B amplifier (Axon Instruments). […]

[2] = system: transient outward K^+ channel (IA); test: Transient outward A-type K+ currents (IA) in TG neurons; type: cell-based, mouse; conditions: 100 nM
Experimental: as §1, §2

[3] = system: sustained delayed rectifier K^+ channel (IDR); test: Sustained delayed rectifier K+ currents (IDR) in TG neurons; type: cell-based, mouse; conditions: 100 nM
Experimental: as §1, §2

[4] = system: mechanical hypersensitivity in mice; test: Orofacial stimulation (operant) test, total contact time; type: in vivo, mouse; conditions: 1 h after intra-TG 1 nmol Nmb
Experimental: Mice were housed on a 12 h light/dark cycle, maintained in a humidity- and temperature-controlled room with water available ad libitum and were acclimated to the experimenter for 2 d before the first behavioural observations. Experimenters were blinded to the treatment or genotypes of the mice. As described previously, [31], an Orofacial Stimulation Test (Ugo Basile, Italy) was used for the measurement of hypersensitivity to the mechanical stimulation of the trigeminal area. Briefly, the mice initially underwent one week of adaptation trainings after a 12 h fasting food period. Each mouse was then placed in a cage in which there was an Orofacial Stimulation Test system. […] The contact number and total duration of time the mouse spent acquiring the reward were analyzed with the ORO software.
For experiments that several time points are needed to be checked in 24 h, von Frey test was used, as orofacial stimulation test can be checked only once a day, [32]. […] Mechanical hypersensitivity was assessed as described in previous studies, [33]. In brief, the threshold was assessed with a set of von Frey hairs (0.02-2.56 g, Stoelting) applied to the whisker pad in an ascending series of trials, with three separate von Frey stimulations applied per series. The threshold was determined when mice moved their heads away briskly and strongly from at least one of the three stimuli. […]

[5] = system: heat hypersensitivity in mice; test: Heat test, head withdrawal latency (HWL); type: in vivo, mouse; conditions: intra-TG 1 nmol or 5 nmol
Experimental: For experiments that several time points are needed to be checked in 24 h, von Frey test was used, as orofacial stimulation test can be checked only once a day, [32]. For the von Frey test, the mice were placed in metal mesh boxes and allowed 30 min for habituation before examination. Mechanical hypersensitivity was assessed as described in previous studies, [33]. In brief, the threshold was assessed with a set of von Frey hairs (0.02-2.56 g, Stoelting) applied to the whisker pad in an ascending series of trials, with three separate von Frey stimulations applied per series. The threshold was determined when mice moved their heads away briskly and strongly from at least one of the three stimuli. Dixon's up-down method was used to determine the 50% probability of escape threshold. For thermal test, a heat stimulus was applied to the maxillary whisker pad skin by radiant heat (IITC Life Science). Heat sensitivity was expressed as head-withdrawal latency (HWL). The radiant heat intensity was adjusted so that basal HWL is between 10-15 s, with a cut-off of 18 s to prevent tissue damage. Chronic inflammatory pain was induced by subcutaneous injection of 20 μL of complete Freund's adjuvant (CFA) into the left side of the buccal pad. […]

[6] = system: p42 MAPK in Rat-1 cells transfected with the Nmb-preferring receptor; conditions: PKC-independent and pertussis toxin-insensitive; ref [62]; cited from earlier work
Description: In contrast, stimulation of PKC either by insulin-like growth factor in dorsal root ganglion neurons or by angiote ...

Neuromedin B [Nmb]
increase of Cav3.1 channel currents (Cav3.1 (α1G)): 0.7 ± 1.2%
decrease of L-type channel currents ([1]; 100 nM): 19.6 ± 2.2%
decrease of remaining HVA Ca2+ channel currents ([1]; 100 nM Nmb with 5 μM nifedipine): 1.3 ± 0.6%
decrease of peak amplitude of IA [2]: 22.3 ± 3.9%
decrease of IDR [3]: 1.9 ± 1.6%
total contact time [4]: significantly reduced
head withdrawal latency effect, duration [5]: maintained at 3 h
head withdrawal latency (HWL) ([5]; at 1 h): significantly decreased the head withdrawal latency
p42 MAPK activation [6]: activated p42 MAPK
